# Results from US20100297225A1, “SUSTAINED-RELEASE PHARMACEUTICAL FORMULATION CONTAINING AN ANTIMUSCARINIC AGENT AND A WETTING AGENT AS WELL AS A PROCESS FOR THE PREPARATION THEREOF” (PHARMATHEN S.A., priority 2007, published 2010).
# Counter-ions that a name gives are not always drawn.
# Key:
# [1] = Flowability and compressibility (Carr's Index); format: physicochemical
# Description: The pharmaceutical composition is characterized by excellent pharmacotechnical properties, such as homogeneity, flowability and compressibility.
# [2] = X-RD analysis of crystalline form after storage; format: physicochemical; details: 3 months storage, normal and accelerated conditions (40°C and 75% RH)
# Procedure: As shown in FIG. 1 by the X-RD analysis Tolterodine Tartrate is in crystalline form and all the recorded characteristic broad peaks (approximate 20 values=12.55, 16.40, 20.00, 21.20, 22.75, 23.80, 25.65, 27.45, 34.60 and 37.60) were unchanged after 3 months storage in both normal and accelerated conditions (40° C. and 75% RH). The crystal properties remain also unchanged after three months in the same conditions when the mixture is incorporated in a pharmaceutical composition with other excipients.
structure (smiles),measurement,setting,value
"Cc1ccc(O)c([C@H](CCN(C(C)C)C(C)C)c2ccccc2)c1 [Tolterodine Tartrate, (R)—N,N-diisopropyl-3-(2-hydroxy-5-methylphenyl)-3-phenylpropylamine]",mean Carr's Index,[1],38.7%
same,X-RD characteristic peaks of crystalline form after storage,[2],unchanged
